This note sets out measurements from ChEMBL document CHEMBL5506025, “Discovery of LLC0424 as a Potent and Selective in Vivo NSD2 PROTAC Degrader” (J Med Chem, 2024).

Structures are written as SMILES. Active and inactive are the calls of the source. The calls are words filed in the database; no cut-off is given here.

For experiment [1], the target named is T1, Protein cereblon/Histone-lysine N-methyltransferase NSD2 (Homo sapiens) (UniProt O96028+Q96SW2). The experiment in a line: PROTAC activity at CRBN/NSD2 in human SEM cells assessed as induction of NSD2 degradation at 2 uM preincubated for 12 hrs followed by compound washout and measured after 48 hrs by immunoblot analysis. In kind it is cell-based.
T1 sequence (O96028 whole entry, looked up): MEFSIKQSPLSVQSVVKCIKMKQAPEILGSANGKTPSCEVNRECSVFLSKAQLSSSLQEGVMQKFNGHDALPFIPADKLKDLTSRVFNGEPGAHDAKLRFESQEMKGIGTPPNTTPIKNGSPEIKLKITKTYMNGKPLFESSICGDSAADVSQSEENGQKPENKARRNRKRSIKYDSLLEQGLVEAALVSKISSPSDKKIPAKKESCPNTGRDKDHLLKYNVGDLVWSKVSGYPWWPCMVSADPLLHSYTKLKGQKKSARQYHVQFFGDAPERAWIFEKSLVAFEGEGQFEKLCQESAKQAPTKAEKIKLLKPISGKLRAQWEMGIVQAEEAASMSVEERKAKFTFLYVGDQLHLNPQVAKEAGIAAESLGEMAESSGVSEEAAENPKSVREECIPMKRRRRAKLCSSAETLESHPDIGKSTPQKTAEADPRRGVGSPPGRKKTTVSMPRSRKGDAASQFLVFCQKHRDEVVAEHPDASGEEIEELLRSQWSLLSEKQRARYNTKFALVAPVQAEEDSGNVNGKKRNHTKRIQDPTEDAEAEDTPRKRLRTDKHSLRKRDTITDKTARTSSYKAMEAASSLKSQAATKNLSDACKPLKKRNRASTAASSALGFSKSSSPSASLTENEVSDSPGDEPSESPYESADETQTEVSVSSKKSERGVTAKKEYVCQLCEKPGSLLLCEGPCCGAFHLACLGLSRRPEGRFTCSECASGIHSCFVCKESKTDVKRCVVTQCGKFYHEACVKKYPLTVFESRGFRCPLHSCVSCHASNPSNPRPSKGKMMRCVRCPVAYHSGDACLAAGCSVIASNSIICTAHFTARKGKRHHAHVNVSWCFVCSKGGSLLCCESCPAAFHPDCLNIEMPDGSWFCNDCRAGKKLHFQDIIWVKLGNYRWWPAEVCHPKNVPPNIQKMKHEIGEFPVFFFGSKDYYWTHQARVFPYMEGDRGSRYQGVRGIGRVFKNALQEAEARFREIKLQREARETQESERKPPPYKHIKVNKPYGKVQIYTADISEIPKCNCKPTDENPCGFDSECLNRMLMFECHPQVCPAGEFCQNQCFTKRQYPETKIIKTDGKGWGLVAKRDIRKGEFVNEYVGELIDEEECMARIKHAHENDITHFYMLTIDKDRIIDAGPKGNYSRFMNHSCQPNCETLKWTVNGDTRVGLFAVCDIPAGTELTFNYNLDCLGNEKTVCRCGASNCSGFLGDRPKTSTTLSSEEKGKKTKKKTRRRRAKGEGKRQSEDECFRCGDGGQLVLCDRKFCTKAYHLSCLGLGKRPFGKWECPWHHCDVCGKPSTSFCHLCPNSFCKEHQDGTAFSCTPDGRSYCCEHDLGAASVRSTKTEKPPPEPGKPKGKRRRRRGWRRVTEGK
T1 sequence (Q96SW2 whole entry, looked up): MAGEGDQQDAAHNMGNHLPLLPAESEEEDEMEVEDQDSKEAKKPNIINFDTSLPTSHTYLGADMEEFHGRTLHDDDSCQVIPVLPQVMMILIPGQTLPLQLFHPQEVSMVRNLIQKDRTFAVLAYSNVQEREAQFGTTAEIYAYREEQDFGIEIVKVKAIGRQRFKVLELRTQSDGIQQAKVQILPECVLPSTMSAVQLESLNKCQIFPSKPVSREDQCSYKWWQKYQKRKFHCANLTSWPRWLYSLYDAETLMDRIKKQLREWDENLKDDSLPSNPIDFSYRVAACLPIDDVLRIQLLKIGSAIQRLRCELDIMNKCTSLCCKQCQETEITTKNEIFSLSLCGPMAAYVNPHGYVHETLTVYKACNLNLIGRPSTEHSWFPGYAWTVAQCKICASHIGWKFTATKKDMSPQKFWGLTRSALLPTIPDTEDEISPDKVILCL
Experiment [2] deals with T1, Protein cereblon/Histone-lysine N-methyltransferase NSD2 (Homo sapiens). Kind of experiment: PROTAC activity at CRBN/NSD2 in human RPMI 8402 cells assessed as downregulation of H3K36Me2 level at 2 uM measured upto 24 hrs hrs by immunoblot analysis. It is filed as cell-based.
Experiment [3] has as its system SEM cells. Kind of experiment: Cytotoxicity against human SEM cells assessed as inhibition of cell growth at 2 uM measured after 9 days by Celltiter-glo assay. It is filed as functional, cell-based. As to conditions: time 9.0 day.
In experiment [4] the target is T1, Protein cereblon/Histone-lysine N-methyltransferase NSD2 (Homo sapiens). The experiment in a line: PROTAC activity at CRBN/NSD2 in human RPMI 8402 cells assessed as induction of NSD2 degradation at 0.5 to 2 uM measured after 24 hrs by immunoblot analysis. It is filed as cell-based. As to conditions: dose 0.5-2 µM.
Experiment [5] has as its target T2, Protein cereblon/Eukaryotic peptide chain release factor GTP-binding subunit ERF3A (Homo sapiens) (UniProt Q96SW2+P15170). The experiment in a line: PROTAC activity at CRBN/GSPT1 in human SEM cells assessed as decrease in GSPT1 level at 2 uM measured after 12 hrs by immunoblot analysis. It is filed as cell-based.
In experiment [6] the target is T1, Protein cereblon/Histone-lysine N-methyltransferase NSD2 (Homo sapiens). Kind of experiment: PROTAC activity at CRBN/NSD2 in human RPMI 8402 cells assessed as decrease in NSD2 level at 2 uM measured after 12 hrs by TMT-labeled quantitative proteomics assay. It is filed as cell-based.
Experiment [7] concerns the target Protein cereblon/Zinc finger protein Aiolos (Homo sapiens) (UniProt Q96SW2+Q9UKT9). The experiment in a line: PROTAC activity at CRBN/IKZF3 in human SEM cells assessed as decrease in IKZF3 level at 2 uM measured upto 8 hrs by immunoblot analysis. In kind it is cell-based.
For experiment [8], the target named is T1, Protein cereblon/Histone-lysine N-methyltransferase NSD2 (Homo sapiens). Kind of experiment: PROTAC activity at CRBN/NSD2 in human RPMI 8402 cells assessed as induction of NSD2 degradation at 2 uM pretreated with bortezomib for 2 hrs followed by compound addition and measured after 6 to 12 hrs by Western blot analysis. It is filed as cell-based. As to conditions: time 6-12 hrs.

A further experiment concerns RPMI 8402. Kind of experiment: Cytotoxicity against human RPMI 8402 cells assessed as inhibition of cell growth at 2 uM measured after 9 days by Celltiter-glo assay. As to conditions: time 9.0 day. It is filed as functional, cell-based.
In experiment [9] the target is T1, Protein cereblon/Histone-lysine N-methyltransferase NSD2 (Homo sapiens). Kind of experiment: In vivo PROTAC activity at CRBN/NSD2 in SCID mouse xenografted with human SEM cells assessed as downregulation of NSD2 level at 60 mg/kg, ip for 5 days by Western blot analysis. It is filed as functional, organism-based. As to conditions: time 5.0 day.
The target is the same in experiment [10]. The experiment in a line: PROTAC activity at CRBN/NSD2 in human SEM cells assessed as induction of NSD2 degradation incubated for 24 hrs by immunoblot analysis. It is filed as cell-based. The following applies: dose 0.001-10 µM.
The target in experiment [11] is T2, Protein cereblon/Eukaryotic peptide chain release factor GTP-binding subunit ERF3A (Homo sapiens). Kind of experiment: PROTAC activity at CRBN/GSPT1 in human SEM cells assessed as decrease in GSPT1 level at 2 uM measured upto 8 hrs by immunoblot analysis. In kind it is cell-based.
In experiment [12] the test system is SEM cells. The experiment in a line: Downregulation of TNFAIP3 gene expression in human SEM cells measured after 14 days by RNA sequencing assay. As to conditions: time 14.0 day. It is filed as functional, cell-based.
Experiment [13] relates to SEM cells. The experiment in a line: Downregulation of MS4A1 gene expression in human SEM cells measured after 14 days by RNA sequencing assay. It is filed as functional, cell-based. As to conditions: time 14.0 day.
For experiment [14], the target named is T2, Protein cereblon/Eukaryotic peptide chain release factor GTP-binding subunit ERF3A (Homo sapiens). Kind of experiment: PROTAC activity at CRBN/GSPT1 in human RPMI 8402 cells assessed as decrease in GSPT1 level at 2 uM by immunoblot analysis. It is filed as cell-based.
For experiment [15], the target named is T1, Protein cereblon/Histone-lysine N-methyltransferase NSD2 (Homo sapiens). The experiment in a line: In vivo PROTAC activity at CRBN/NSD2 in SCID mouse xenografted with human SEM cells assessed as downregulation of NSD2 level at 60 mg/kg, ip for 5 days by immunohistochemical analysis. It is filed as functional, organism-based. As to conditions: time 5.0 day.

T2 sequence (P15170 whole entry, looked up): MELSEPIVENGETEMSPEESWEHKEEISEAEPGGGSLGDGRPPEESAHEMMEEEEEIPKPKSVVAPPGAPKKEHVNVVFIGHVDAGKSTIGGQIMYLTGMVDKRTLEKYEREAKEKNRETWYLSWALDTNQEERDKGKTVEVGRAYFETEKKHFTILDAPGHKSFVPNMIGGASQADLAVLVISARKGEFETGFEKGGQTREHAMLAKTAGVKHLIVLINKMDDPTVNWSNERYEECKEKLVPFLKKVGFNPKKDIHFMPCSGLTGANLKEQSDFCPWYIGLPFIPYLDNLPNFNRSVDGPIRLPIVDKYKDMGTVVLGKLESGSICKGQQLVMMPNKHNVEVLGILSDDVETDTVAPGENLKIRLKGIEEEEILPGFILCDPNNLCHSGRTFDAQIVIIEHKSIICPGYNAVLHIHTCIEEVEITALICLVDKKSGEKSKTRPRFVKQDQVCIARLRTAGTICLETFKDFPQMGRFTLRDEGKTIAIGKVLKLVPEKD
T2 sequence (Q96SW2 whole entry, looked up): as the sequence (Q96SW2 whole entry, looked up) above
Protein cereblon/Zinc finger protein Aiolos (Homo sapiens), sequence (Q96SW2 whole entry, looked up): as above
Protein cereblon/Zinc finger protein Aiolos (Homo sapiens), sequence (Q9UKT9 whole entry, looked up): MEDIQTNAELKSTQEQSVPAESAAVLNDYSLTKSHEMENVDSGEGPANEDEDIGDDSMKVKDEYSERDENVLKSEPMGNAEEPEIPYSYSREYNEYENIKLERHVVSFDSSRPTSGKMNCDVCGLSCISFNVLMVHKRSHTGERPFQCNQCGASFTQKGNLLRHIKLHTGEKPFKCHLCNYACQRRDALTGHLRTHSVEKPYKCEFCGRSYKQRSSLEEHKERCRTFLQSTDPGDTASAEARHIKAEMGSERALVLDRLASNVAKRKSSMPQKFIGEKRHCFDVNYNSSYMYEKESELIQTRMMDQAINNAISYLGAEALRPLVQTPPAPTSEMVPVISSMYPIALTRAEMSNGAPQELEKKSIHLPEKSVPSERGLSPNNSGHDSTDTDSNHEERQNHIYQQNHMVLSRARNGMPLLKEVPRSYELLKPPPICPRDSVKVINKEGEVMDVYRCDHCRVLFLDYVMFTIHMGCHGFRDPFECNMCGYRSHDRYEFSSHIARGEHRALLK

Turning to `O=C1CCC(N2C(=O)c3ccc(N4CCC(NC(=O)c5ccc(NC(=O)c6ccc(CN(C(=O)c7ccc8c(c7)OCC(=O)N8)C7CC7)cc6)cc5)CC4)cc3C2=O)C(=O)N1` (stereo unspecified), the outcome in [1], in [7], in [8] and in experiment [11] was inactive. Moreover, the outcome (in experiment [2]; with SEM cells [3]; in experiment [4]; in experiment [5]; in experiment [6]; in the experiment with RPMI 8402) was Active. Besides, the result (in experiment [9]; in the experiment with SEM cells [12]; in the experiment with SEM cells [13]; in experiment [14]; in experiment [15]) was Active. For the same compound, the Activity result in [10] is “Dose-Dependent Effect”.
